Source: patent US20250236608A1, “EGFR INHIBITORS” (Blueprint Medicines Corporation, priority 2022, published 2025)

Legend:
EGFR (d746-750) = EGFR (d746-750) (Homo sapiens (Human), UniProt P00533, DEL746-750); assay: Biochemical EGFR inhibition assay, EGFR (d746-750); settings: Caliper mobility shift; 1.0 mM ATP or ATP Km; read-out: Enz EGFR_Exon19-del746-750 IC50
EGFR L858R = EGFR L858R (Homo sapiens (Human), UniProt P00533, L858R); assay: Biochemical EGFR inhibition assay, EGFR L858R; settings: Caliper mobility shift; 1.0 mM ATP or ATP Km; read-out: Enz EGFR_L858R IC50
Chain of EGFR L858R (P00533 25-1210 L858R): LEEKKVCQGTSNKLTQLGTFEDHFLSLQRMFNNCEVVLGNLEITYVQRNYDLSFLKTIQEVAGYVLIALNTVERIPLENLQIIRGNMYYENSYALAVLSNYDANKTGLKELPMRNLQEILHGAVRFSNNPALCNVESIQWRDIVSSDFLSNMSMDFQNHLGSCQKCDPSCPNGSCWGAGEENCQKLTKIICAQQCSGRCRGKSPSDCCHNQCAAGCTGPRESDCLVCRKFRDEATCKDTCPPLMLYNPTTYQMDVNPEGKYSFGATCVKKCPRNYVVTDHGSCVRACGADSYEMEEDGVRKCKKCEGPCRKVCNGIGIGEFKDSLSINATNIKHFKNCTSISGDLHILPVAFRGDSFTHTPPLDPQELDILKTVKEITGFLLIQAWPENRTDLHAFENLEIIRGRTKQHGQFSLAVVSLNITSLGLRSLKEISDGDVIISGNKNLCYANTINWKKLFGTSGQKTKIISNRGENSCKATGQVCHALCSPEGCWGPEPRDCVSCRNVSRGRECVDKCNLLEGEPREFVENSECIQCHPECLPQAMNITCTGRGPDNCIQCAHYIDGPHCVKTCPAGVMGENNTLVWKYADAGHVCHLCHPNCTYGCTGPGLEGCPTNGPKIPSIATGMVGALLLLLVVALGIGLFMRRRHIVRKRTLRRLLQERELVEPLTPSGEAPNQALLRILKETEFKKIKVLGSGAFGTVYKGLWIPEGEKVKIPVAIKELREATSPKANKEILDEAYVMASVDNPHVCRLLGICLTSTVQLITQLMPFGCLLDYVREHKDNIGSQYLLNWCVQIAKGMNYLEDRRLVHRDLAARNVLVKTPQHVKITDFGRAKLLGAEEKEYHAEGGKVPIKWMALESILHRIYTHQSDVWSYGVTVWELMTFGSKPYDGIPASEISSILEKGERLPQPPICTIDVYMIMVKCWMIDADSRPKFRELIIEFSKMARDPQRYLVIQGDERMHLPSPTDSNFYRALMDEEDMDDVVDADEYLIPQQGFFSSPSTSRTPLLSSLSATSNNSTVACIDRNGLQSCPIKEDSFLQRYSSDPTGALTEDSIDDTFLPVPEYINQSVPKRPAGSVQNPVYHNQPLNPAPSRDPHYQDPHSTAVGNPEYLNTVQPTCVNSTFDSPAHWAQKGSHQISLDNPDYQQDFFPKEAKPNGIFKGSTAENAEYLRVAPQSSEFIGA

[1] = target: pEGFR (Tyr1068) in PC-9 cells (Ex19Del) (Homo sapiens (Human), UniProt P00533, DEL746-750); assay: PC-9 pEGFR AlphaLISA assay; format: cell-based; settings: 4 hours incubation, p-EGFR (Tyr1068) AlphaLISA, read-out: Ext pEGFR_PC-9 Ex19Del IC50
Chain of pEGFR (Tyr1068) in PC-9 cells (Ex19Del) (P00533 other isoform, or with tags, fused parts or gaps del 746-750): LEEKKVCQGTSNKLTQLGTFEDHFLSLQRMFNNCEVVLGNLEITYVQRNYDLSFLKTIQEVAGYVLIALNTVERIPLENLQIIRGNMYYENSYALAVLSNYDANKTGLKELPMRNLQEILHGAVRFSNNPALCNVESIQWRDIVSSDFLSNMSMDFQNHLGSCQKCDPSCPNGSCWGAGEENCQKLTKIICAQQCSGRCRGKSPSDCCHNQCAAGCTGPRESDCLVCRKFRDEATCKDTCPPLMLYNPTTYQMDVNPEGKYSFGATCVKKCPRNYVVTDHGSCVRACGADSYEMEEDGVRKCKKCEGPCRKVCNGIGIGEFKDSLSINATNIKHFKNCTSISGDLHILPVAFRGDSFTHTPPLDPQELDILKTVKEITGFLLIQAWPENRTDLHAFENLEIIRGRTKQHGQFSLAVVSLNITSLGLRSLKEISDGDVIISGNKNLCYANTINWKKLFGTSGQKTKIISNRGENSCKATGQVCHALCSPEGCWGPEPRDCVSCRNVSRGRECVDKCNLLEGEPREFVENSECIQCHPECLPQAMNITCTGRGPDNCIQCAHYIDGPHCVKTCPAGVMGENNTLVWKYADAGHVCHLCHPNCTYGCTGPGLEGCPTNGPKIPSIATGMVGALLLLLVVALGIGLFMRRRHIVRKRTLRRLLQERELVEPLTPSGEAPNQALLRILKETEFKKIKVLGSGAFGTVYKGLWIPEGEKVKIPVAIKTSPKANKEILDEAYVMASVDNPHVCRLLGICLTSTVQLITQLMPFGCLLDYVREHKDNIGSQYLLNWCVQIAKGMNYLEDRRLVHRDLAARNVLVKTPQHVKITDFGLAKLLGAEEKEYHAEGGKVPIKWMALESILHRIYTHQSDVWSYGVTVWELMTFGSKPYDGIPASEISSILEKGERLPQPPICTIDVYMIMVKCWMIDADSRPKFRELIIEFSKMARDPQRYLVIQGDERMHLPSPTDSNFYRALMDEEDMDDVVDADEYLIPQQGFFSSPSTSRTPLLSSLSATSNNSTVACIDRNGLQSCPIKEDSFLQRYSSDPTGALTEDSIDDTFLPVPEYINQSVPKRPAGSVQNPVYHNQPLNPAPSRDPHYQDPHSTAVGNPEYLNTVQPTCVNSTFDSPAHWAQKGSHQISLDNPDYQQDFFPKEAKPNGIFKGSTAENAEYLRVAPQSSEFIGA
Outline: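 First, cells settled overnight in 10% FBS medium. Second, a 10-point, 4-fold series of test agents was applied for 4 h at 37° C. Third, lysates were probed with AlphaLISA acceptor and donor beads, incubated overnight in the dark. Last, IC50 was taken from the dose-response.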

Chain of EGFR (d746-750) (P00533 other isoform, or with tags, fused parts or gaps del 1-694/del 746-750 limits assumed): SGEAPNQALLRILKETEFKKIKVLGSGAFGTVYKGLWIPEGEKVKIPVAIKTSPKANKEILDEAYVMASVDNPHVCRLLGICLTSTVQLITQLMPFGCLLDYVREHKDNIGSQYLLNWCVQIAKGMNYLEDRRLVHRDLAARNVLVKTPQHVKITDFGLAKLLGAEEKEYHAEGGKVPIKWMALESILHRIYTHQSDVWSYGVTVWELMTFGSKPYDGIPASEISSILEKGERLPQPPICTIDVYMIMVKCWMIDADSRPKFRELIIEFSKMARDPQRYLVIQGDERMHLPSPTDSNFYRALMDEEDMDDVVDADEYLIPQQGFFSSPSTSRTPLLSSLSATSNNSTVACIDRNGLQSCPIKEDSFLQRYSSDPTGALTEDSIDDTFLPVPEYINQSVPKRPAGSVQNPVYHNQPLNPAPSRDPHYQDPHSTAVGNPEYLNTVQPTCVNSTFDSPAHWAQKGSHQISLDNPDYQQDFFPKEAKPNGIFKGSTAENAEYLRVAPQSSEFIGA

Structure (SMILES)	IC50 (EGFR (d746-750)) [nM]	IC50 (EGFR L858R) [nM]	IC50 [1] [nM]
CN1CC[C@@H](Oc2cc3c(-c4cn(C)nc4-c4ccccc4)ncnc3cc2OC(F)F)[C@H](F)C1 [Example 475, 7-(difluoromethoxy)-6-{[(3R,4R)-3-fluoro-1-methylpiperidin-4-yl]oxy}-4-(1-methyl-3-phenyl-1H-pyrazol-4-yl)quinazoline]	21	65.5	71.6
COc1cc2ncnc(-c3cn(CC(F)F)nc3-c3ccccc3)c2cc1NC(=O)c1ccc(C2CC2)nc1 [Example 333, 6-cyclopropyl-N-(4-(1-(2,2-difluoroethyl)-3-phenyl-1H-pyrazol-4-yl)-7-methoxyquinazolin-6-yl) nicotinamide]	0.8	1.3	1.7
COc1cc2ncnc(-c3cn(C)nc3-c3ccccc3)c2cc1NC(=O)C(C)N(C)C (stereo not drawn) [Example 220, 2-(dimethylamino)-N-(7-methoxy-4-(1-methyl-3-phenyl-1H-pyrazol-4-yl)quinazolin-6-yl)propanamide]	1.7	5	4.7
COc1cc2ncnc(-c3cn(CC(F)F)nc3-c3ccccc3)c2cc1NC(=O)c1cccnc1 [Example 353, N-(4-(1-(2,2-difluoroethyl)-3-phenyl-1H-pyrazol-4-yl)-7-methoxyquinazolin-6-yl)nicotinamide]	1.3	2.3	1.6
Cc1nnc([C@@H](C)Oc2nc3c(-c4cn(C)nc4-c4ccccc4)ncnc3cc2OC2CC2)o1 (single isomer, unassigned) [Example 478, 2-[(1S)-1-{[7-cyclopropoxy-4-(1-methyl-3-phenyl-1H-pyrazol-4-yl)pyrido[3,2-d]pyrimidin-6-yl]oxy}ethyl]-5-methyl-1,3,4-oxadiazole or 2-[(1R)-1-{[7-cyclopropoxy-4-(1-methyl-3-phenyl-1H-pyrazol-4-yl)pyrido[3,2-d]pyrimidin-6-yl]oxy}ethyl]-5-methyl-1,3,4-oxadiazole]	2.8	10.5	3.6
COc1cc2ncnc(-c3cn(C)nc3-c3ccccc3)c2cc1NC(=O)[C@H]1C[C@@H]1C(F)(F)F [Example 287, (1S,2S)—N-(7-methoxy-4-(1-methyl-3-phenyl-1H-pyrazol-4-yl)quinazolin-6-yl)-2-(trifluoromethyl)cyclopropane-1-carboxamide]	1.2	4.5	13
COc1cc2ncnc(-c3cn(C)nc3-c3ccccc3)c2cc1NC(=O)c1ccc(C2CC2)nc1 [Example 229, 6-cyclopropyl-N-(7-methoxy-4-(1-methyl-3-phenyl-1H-pyrazol-4-yl)quinazolin-6-yl) nicotinamide]	1.7	3.5	3.7
CCOc1cc2ncnc(-c3cn(CC)nc3-c3ccccc3)c2cc1[C@@H](C)O (single isomer, unassigned) [Example 108, (R)-1-(7-ethoxy-4-(1-ethyl-3-phenyl-1H-pyrazol-4-yl)quinazolin-6-yl)ethan-1-ol or (S)-1-(7-ethoxy-4-(1-ethyl-3-phenyl-1H-pyrazol-4-yl)quinazolin-6-yl)ethan-1-ol]	0.9	1.3	2.7
CCn1cc(-c2ncnc3cc(OC)c(N4CCOCC4)cc23)c(-c2ccc(F)cc2)n1 [Example 171, 4-(4-(1-ethyl-3-(4-fluorophenyl)-1H-pyrazol-4-yl)-7-methoxyquinazolin-6-yl)morpholine]	2.9	5.2	4.8

The remaining lines, values ahead:

IC50 (EGFR (d746-750)) [nM]	IC50 (EGFR L858R) [nM]	IC50 [1] [nM]	Structure (SMILES)
5.3	28.9	14.8	CCc1cc2ncnc(-c3cn(C)nc3-c3ccccc3)c2nc1NC(=O)C12COCC1C2 (stereo not drawn) [Example 452, N-(7-ethyl-4-(1-methyl-3-phenyl-1H-pyrazol-4-yl)pyrido[3,2-d]pyrimidin-6-yl)-3-oxabicyclo[3.1.0]hexane-1-carboxamide]
0.7	1.2	0.9	COc1cc2ncnc(-c3cn(C4CC4)nc3-c3ccccc3)c2nc1NC(=O)[C@@]12C[C@@H]1CN(C)C2 (single isomer, unassigned) [Example 406, (1S,5S)—N-(4-(1-cyclopropyl-3-phenyl-1H-pyrazol-4-yl)-7-methoxypyrido[3,2-d]pyrimidin-6-yl)-3-methyl-3-azabicyclo[3.1.0]hexane-1-carboxamide or (1R,5R)—N-(4-(1-cyclopropyl-3-phenyl-1H-pyrazol-4-yl)-7-methoxypyrido[3,2-d]pyrimidin-6-yl)-3-methyl-3-azabicyclo[3.1.0]hexane-1-carboxamide]
1.9	4	6.2	COc1cc2ncnc(-c3cn(C)nc3-c3ccccc3)c2cc1O[C@H]1CCOC1 [Example 13, (S)-7-methoxy-4-(1-methyl-3-phenyl-1H-pyrazol-4-yl)-6-((tetrahydrofuran-3-yl)oxy)quinazoline]
1.8	2.7	3.8	COc1cc2ncnc(-c3cn(C)nc3-c3ccccc3F)c2cc1NC(=O)[C@]12C[C@H]1CN(C)C2 (single isomer, unassigned) [Example 255, (1R,5R)—N-(4-(3-(2-fluorophenyl)-1-methyl-1H-pyrazol-4-yl)-7-methoxyquinazolin-6-yl)-3-methyl-3-azabicyclo[3.1.0]hexane-1-carboxamide or (1S,5S)—N-(4-(3-(2-fluorophenyl)-1-methyl-1H-pyrazol-4-yl)-7-methoxyquinazolin-6-yl)-3-methyl-3-azabicyclo[3.1.0]hexane-1-carboxamide]
0.9	2.4	2.5	CCOc1cc2ncnc(-c3cn(C)nc3-c3ccc(F)cc3)c2nc1NC(=O)[C@@]12C[C@@H]1CN(C)C2 (single isomer, unassigned) [Example 375, (1S,5S)—N-(7-ethoxy-4-(3-(4-fluorophenyl)-1-methyl-1H-pyrazol-4-yl)pyrido[3,2-d]pyrimidin-6-yl)-3-methyl-3-azabicyclo[3.1.0]hexane-1-carboxamide or (1R,5R)—N-(7-ethoxy-4-(3-(4-fluorophenyl)-1-methyl-1H-pyrazol-4-yl)pyrido[3,2-d]pyrimidin-6-yl)-3-methyl-3-azabicyclo[3.1.0]hexane-1-carboxamide]
0.6	1.1	1.7	COc1cc2ncnc(-c3cn(C)nc3-c3ccccc3)c2cc1NC(=O)[C@@H]1CCN(C)C1 [Example 210, (R)-N-(7-methoxy-4-(1-methyl-3-phenyl-1H-pyrazol-4-yl)quinazolin-6-yl)-1-methylpyrrolidine-3-carboxamide]
0.8	2.2	2.3	COc1cc2ncnc(-c3cn(C)nc3-c3ccccc3F)c2nc1NC(=O)[C@@]12C[C@@H]1CN(C)C2 [Example 373, (1S,5S)—N-(4-(3-(2-fluorophenyl)-1-methyl-1H-pyrazol-4-yl)-7-methoxypyrido[3,2-d]pyrimidin-6-yl)-3-methyl-3-azabicyclo[3.1.0]hexane-1-carboxamide]
1.3	3.4	3.1	COc1cc2ncnc(-c3cn(C)nc3-c3ccccc3)c2nc1NC(=O)c1cn(C(C)C)nc1C [Example 310, 1-isopropyl-N-(7-methoxy-4-(1-methyl-3-phenyl-1H-pyrazol-4-yl)pyrido[3,2-d]pyrimidin-6-yl)-3-methyl-1H-pyrazole-4-carboxamide]
1.9	2.4	3.9	COc1cc2ncnc(-c3cn(C)nc3-c3ccccc3)c2cc1NC(=O)[C@H]1CCN1C (single isomer, unassigned) [Example 253, (R)—N-(7-methoxy-4-(1-methyl-3-phenyl-1H-pyrazol-4-yl)quinazolin-6-yl)-1-methylazetidine-2-carboxamide or (S)—N-(7-methoxy-4-(1-methyl-3-phenyl-1H-pyrazol-4-yl)quinazolin-6-yl)-1-methylazetidine-2-carboxamide]
1	1.8	0.8	COc1cc2ncnc(-c3cn(C)nc3-c3ccccc3)c2nc1NC(=O)[C@]12CN(C)C[C@H]1C2(F)F (single isomer, unassigned) [Example 416, (1R,5S)-6,6-difluoro-N-(7-methoxy-4-(1-methyl-3-phenyl-1H-pyrazol-4-yl)pyrido[3,2-d]pyrimidin-6-yl)-3-methyl-3-azabicyclo[3.1.0]hexane-1-carboxamide or (1S,5R)-6,6-difluoro-N-(7-methoxy-4-(1-methyl-3-phenyl-1H-pyrazol-4-yl)pyrido[3,2-d]pyrimidin-6-yl)-3-methyl-3-azabicyclo[3.1.0]hexane-1-carboxamide]
2.1	4.6	5.3	COc1cc2ncnc(-c3cn(C)nc3-c3ccccc3)c2c(F)c1NC(=O)C1CCC1 [Example 295, N-(5-fluoro-7-methoxy-4-(1-methyl-3-phenyl-1H-pyrazol-4-yl)quinazolin-6-yl)cyclobutanecarboxamide]
0.6	1.4	1.2	COc1cc2ncnc(-c3cn(C)nc3-c3ccccc3)c2nc1NC(=O)[C@@]12COC[C@@H]1C2 (single isomer, unassigned) [Example 431, (1R,5R)—N-(7-methoxy-4-(1-methyl-3-phenyl-1H-pyrazol-4-yl)pyrido[3,2-d]pyrimidin-6-yl)-3-oxabicyclo[3.1.0]hexane-1-carboxamide or (1S,5S)—N-(7-methoxy-4-(1-methyl-3-phenyl-1H-pyrazol-4-yl)pyrido[3,2-d]pyrimidin-6-yl)-3-oxabicyclo[3.1.0]hexane-1-carboxamide]
